Marks after values point to notes of the source that are not given here.
What was measured:
Test in all cases: 10-day proliferation (CTG), SPLAM titration + 1000 nM Compound A, Bliss (Example 5; Tables 12-19)
Format in all cases: cell-based
[1] = tested on: RT112/84; design: key: GDI scale -100 to 100; 0 = cell number at T0; <0 cytotoxic; details: for GDI (growth death index), single agent Cmpd A: RT112/84, 1000 nM Compound A
Description: Synergy was measured across the Indisulam titration with 1000 nM Compound A by Bliss Independence analysis. Bliss scores >10 are indicated by “*” and are considered synergistic. […] Synergy as reported using Bliss may be underrepresented within cytotoxic dose ranges. Growth death index values are shown for the combination titration and each single agent Compound A (Cmpd A) and Indisulam on a scale of −100 to 100 with the midpoint (0) being the number of cells at the beginning of the combination (T0). Scores less than 0 are indicated with “**” and are representative of a cytotoxic response. Bliss and GDI values are shown for five MTAP-deficient cell lines: NCI-1H838 (12A), SW900 (12B), RT112/84 (12C), UMUC5 (121D), and UMUC11 (12E).
(§1) A 10-day proliferation assay was performed in a panel of 5 MTAP-deficient and 2 wild type non-small cell lung and bladder cancer cell lines. Optimal cell seeding for all cell lines was determined by assessing the growth over a range of seeding densities in a 384-well format to identify conditions that permitted proliferation for 10 days. Cells were then plated at the optimal seeding density and treated with 20-point, two-fold dilution series of each of four structurally different SPLAMs in combination with a 1000 nM fixed concentration of Compound A. Single agent titrations for Compound A and each SPLAM were included for comparison. Concentrations tested for each SPLAM alone or in combination ranged from 0.04 nM to 20,000 nM. A plate of cells was harvested at the time of compound addition to quantify the number of cells at the start of the combination (T0). For cell quantification, the harvested cells were lysed with Promega CellTiter-Glo (CTG) reagent according to the manufacturer's protocol and the chemiluminescent signal was detected as described in Example 1 above. Cells were incubated with the drug combinations at 37° C. with 5% CO2 for 10 days. Cells were then lysed with CTG and the chemiluminescent signal was measured.
(§2) CTG values obtained after the 10-day treatment were background subtracted and expressed as a percent of the T0 value set at 100%. Data were plotted against compound concentration and fit with a four-parameter equation to generate single agent dose response curves. Percent inhibition was determined for each combination and single agent concentration compared to a DMSO control. In addition, the overall net growth or death of the cells was calculated and reported as a growth death index (GDI) value on a scale of −100 to 100 with the midpoint (0) being the number of cells at the beginning of the combination (T0).
(§3) Predicted inhibition was calculated using (Ea+Eb)−(Ea*Eb) where E equals the effect (inhibition) of each single agent (a and b). A difference between the observed inhibition percentage and the predicted inhibition percentage greater than 10% was considered synergistic. A Bliss score was only reported for combinations eliciting >20% growth inhibition (GDI value <80). Since Bliss is calculated based on growth inhibition, scores within cytotoxic dose ranges may not accurately reflect synergistic cytoxicity.
Synergy was measured across the E7820 titration with 1000 nM Compound A by Bliss Independence analysis. Bliss scores >10 are indicated by “*” and are considered synergistic. […] Synergy as reported using Bliss may be underrepresented within cytotoxic dose ranges. Growth death index values are shown for the combination titration and each single agent Compound A (Cmpd A) and Indisulam on a scale of −100 to 100 with the midpoint (0) being the number of cells at the beginning of the combination (T0). Scores less than 0 are indicated by “**” and are representative of a cytotoxic response. Bliss and GDI values are shown for five MTAP-deficient cell lines: NCI-1H838 (14A), SW900 (14B), RT112/84 (14C), UMUC5 (141)), and UMUC11 (14E).
Synergy was measured across the Chloroquinoxaline Sulfonamide titration with 1000 nM Compound A by Bliss Independence analysis.

[2] = tested on: TCCSUP; design: key: −100 to 100; 0 = cell number at T0, <0 = cytotoxic; details: for GDI (growth death index), single agent Cmpd A: TCCSUP, 1000 nM Compound A
Description: as §1, §2, §3
(§4) Synergy was measured across the Indisulam titration with 1000 nM Compound A by Bliss Independence analysis. Bliss scores >10 are indicated by “*” and are considered synergistic. […] Synergy as reported using Bliss may be underrepresented within cytotoxic dose ranges. Growth death index values are shown for the combination titration and each single agent Compound A (Cmpd A) and Indisulam on a scale of −100 to 100 with the midpoint (0) being the number of cells at the beginning of the combination (T0). Scores less than 0 are highlighted black and are representative of a cytotoxic response. Bliss and GDI values are shown for five MTAP-deficient cell lines: NCI-H520 (13A), TCCSUP (13B).
(§5) Synergy was measured across the E7820 titration with 1000 nM Compound A by Bliss Independence analysis. Bliss scores >10 are indicated by “*” and are considered synergistic. […] Synergy as reported using Bliss may be underrepresented within cytotoxic dose ranges. Growth death index values are shown for the combination titration and each single agent Compound A (Cmpd A) and Indisulam on a scale of −100 to 100 with the midpoint (0) being the number of cells at the beginning of the combination (T0). Scores less than 0 are indicated by “**” and are representative of a cytotoxic response. Bliss and GDI values are shown for five MTAP-deficient cell lines: NCI-H520 (15A), TCCSUP (15B).
(§6) Synergy was measured across the Chloroquinoxaline Sulfonamide titration with 1000 nM Compound A by Bliss Independence analysis. Bliss scores >10 are indicated by and are considered synergistic.

[3] = tested on: NCI-H520; design: key: −100 to 100; 0 = cell number at T0, <0 = cytotoxic; details: for GDI (growth death index), single agent Cmpd A: NCI-H520, 1000 nM Compound A
Description: as §1, §2, §3, §4, §5, §6

[4] = SPLAM 0.04 nM, alone or + 1 uM Cmpd A
[5] = SPLAM 0.1 nM, alone or + 1 uM Cmpd A
[6] = SPLAM 0.2 nM, alone or + 1 uM Cmpd A
[7] = SPLAM 0.3 nM, alone or + 1 uM Cmpd A
[8] = SPLAM 0.6 nM, alone or + 1 uM Cmpd A
[9] = SPLAM 1.2 nM, alone or + 1 uM Cmpd A
[10] = SPLAM 2.4 nM, alone or + 1 uM Cmpd A
[11] = SPLAM 4.9 nM, alone or + 1 uM Cmpd A
[12] = SPLAM 9.8 nM, alone or + 1 uM Cmpd A
[13] = SPLAM 19.5 nM, alone or + 1 uM Cmpd A
[14] = SPLAM 39.1 nM, alone or + 1 uM Cmpd A
[15] = SPLAM 78.1 nM, alone or + 1 uM Cmpd A
[16] = SPLAM 156.3 nM, alone or + 1 uM Cmpd A
[17] = SPLAM 312.5 nM, alone or + 1 uM Cmpd A
[18] = SPLAM 625 nM, alone or + 1 uM Cmpd A
[19] = SPLAM 1250 nM, alone or + 1 uM Cmpd A
[20] = SPLAM 2500 nM, alone or + 1 uM Cmpd A
[21] = SPLAM 5000 nM, alone or + 1 uM Cmpd A
[22] = SPLAM 10000 nM, alone or + 1 uM Cmpd A
[23] = SPLAM 20000 nM, alone or + 1 uM Cmpd A

Compound: Nc1nc(=O)n(-c2ccccc2Cl)c2nc(C(F)(F)F)ccc12 [Compound A]
- GDI (growth death index), single agent Cmpd A ([1]; Table 16C): 62
- GDI (growth death index), single agent Cmpd A ([1]; Table 18C): 62
- GDI ([1]; single agent Cmpd A, 1000 nM): 62
- GDI (growth death index), single agent Cmpd A ([2]; Table 17B): 84
- GDI (growth death index), single agent Cmpd A ([2]; Table 19B): 84
- GDI ([2]; single agent Cmpd A, 1000 nM): 84
- GDI (growth death index), single agent Cmpd A ([3]; Table 17A): 100
- GDI (growth death index), single agent Cmpd A ([3]; Table 19A): 100
- GDI ([3]; single agent Cmpd A, 1000 nM): 100

Compound: NS(=O)(=O)c1ccc(S(=O)(=O)Nc2cccc3c(Cl)c[nH]c23)cc1 [Indisulam, N-(3-chloro-1H-indol-7-yl)benzene-1,4-disulfonamide]
- GDI [1, 4]: 98
- GDI [1, 5]: 100
- GDI [1, 6]: 100
- GDI [1, 7]: 100
- GDI [1, 8]: 96
- GDI [1, 9]: 95
- GDI [1, 10]: 100
- GDI [1, 11]: 100
- GDI [1, 12]: 100
- GDI [1, 13]: 100
- GDI [1, 14]: 100
- GDI [1, 15]: 100
- GDI [1, 16]: 99
- GDI [1, 17]: 44
- GDI [1, 18]: 12
- GDI [1, 19]: −34**
- GDI [1, 20]: −76**
- GDI [1, 21]: −63**
- GDI [1, 22]: −74**
- GDI [1, 23]: −92**
- GDI [2, 4]: 100
- GDI [2, 5]: 100
- GDI [2, 6]: 100
- GDI [2, 7]: 100
- GDI [2, 8]: 100
- GDI [2, 9]: 100
- GDI [2, 10]: 100
- GDI [2, 11]: 100
- GDI [2, 12]: 100
- GDI [2, 13]: 100
- GDI [2, 14]: 100
- GDI [2, 15]: 100
- GDI [2, 16]: 100
- GDI [2, 17]: 100
- GDI [2, 18]: 100
- GDI [2, 19]: 100
- GDI [2, 20]: 100
- GDI [2, 21]: 100
- GDI [2, 22]: 86
- GDI [2, 23]: 70
- GDI [3, 4]: 95
- GDI [3, 5]: 100
- GDI [3, 6]: 100
- GDI [3, 7]: 100
- GDI [3, 8]: 100
- GDI [3, 9]: 100
- GDI [3, 10]: 100
- GDI [3, 11]: 100
- GDI [3, 12]: 100
- GDI [3, 13]: 100
- GDI [3, 14]: 100
- GDI [3, 15]: 100
- GDI [3, 16]: 100
- GDI [3, 17]: 97
- GDI [3, 18]: 45
- GDI [3, 19]: 25
- GDI [3, 20]: 12
- GDI [3, 21]: 6
- GDI [3, 22]: 6
- GDI [3, 23]: 2

Compound: Cc1ccc(NS(=O)(=O)c2cccc(C#N)c2)c2[nH]cc(C#N)c12 [Compound E7820, 3-cyano-N-(3-cyano-4-methyl-1H-indol-7-yl)benzenesulfonamide]
- GDI [1, 4]: 89
- GDI [1, 5]: 94
- GDI [1, 6]: 100
- GDI [1, 7]: 100
- GDI [1, 8]: 100
- GDI [1, 9]: 100
- GDI [1, 10]: 100
- GDI [1, 11]: 94
- GDI [1, 12]: 100
- GDI [1, 13]: 100
- GDI [1, 14]: 100
- GDI [1, 15]: 100
- GDI [1, 16]: 90
- GDI [1, 17]: 31
- GDI [1, 18]: 6
- GDI [1, 19]: −35**
- GDI [1, 20]: −84**
- GDI [1, 21]: −100**
- GDI [1, 22]: −100**
- GDI [1, 23]: −100**
- GDI [2, 4]: 100
- GDI [2, 5]: 100
- GDI [2, 6]: 100
- GDI [2, 7]: 100
- GDI [2, 8]: 100
- GDI [2, 9]: 100
- GDI [2, 10]: 100
- GDI [2, 11]: 100
- GDI [2, 12]: 100
- GDI [2, 13]: 100
- GDI [2, 14]: 100
- GDI [2, 15]: 100
- GDI [2, 16]: 100
- GDI [2, 17]: 100
- GDI [2, 18]: 100
- GDI [2, 19]: 100
- GDI [2, 20]: 100
- GDI [2, 21]: 92
- GDI [2, 22]: 91
- GDI [2, 23]: 78
- GDI [3, 4]: 100
- GDI [3, 5]: 100
- GDI [3, 6]: 100
- GDI [3, 7]: 100
- GDI [3, 8]: 100
- GDI [3, 9]: 100
- GDI [3, 10]: 100
- GDI [3, 11]: 100
- GDI [3, 12]: 100
- GDI [3, 13]: 100
- GDI [3, 14]: 100
- GDI [3, 15]: 100
- GDI [3, 16]: 100
- GDI [3, 17]: 82
- GDI [3, 18]: 54
- GDI [3, 19]: 32
- GDI [3, 20]: 21
- GDI [3, 21]: 11
- GDI [3, 22]: 8
- GDI [3, 23]: 5

From patent US20260294915A1, “COMBINATION THERAPY COMPRISING A MAT2A INHIBITOR AND A TOPOISOMERASE INHIBITOR, A SPLICING INHIBITOR SULFONAMIDE, OR A KIF18 INHIBITOR” (IDEAYA BIOSCIENCES, INC., priority 2023, published 2026)
